Measured values from patent US11478416B2, “Ingredients for use in personal care compositions” (Croda, Inc., priority 2016, dated 2022).
Entries after “also recorded” stand apart in the source; their conditions may differ.

Assay: Frizz control test, panel ranking of tresses at 75% RH
Conditions: from panel ranking
Protocol: The formulations H to M as set out in Table 4 were prepared. Each hair conditioner formulation was prepared by combining the Part A ingredients while mixing and heating to 75-80° C., and separately combining the Part B ingredients and heating to the same temperature. The Part A and Part B ingredients were then combined while mixing at temperature and allowed to cool to 40° C. Once at 40° C., the Part C ingredients were added and the pH adjusted to about 4.5±0.5 using lactic acid.
For each formulation H to M, 7 Brazilian curly hair tresses available from International Hair Importers Inc., NYC, were cut to 1.5 cm wide and 20 cm long.
The tresses were washed with a simple cleansing shampoo (SLES/Betaine shampoo) using a 1:10 w/w shampoo to hair ratio for 1 minute. The tresses were then rinsed with warm water for 1 minute or until free of foam. 3 g of the respective formulation was then massaged into the hair tresses for 1 minute. The treated tresses were left to sit for 20 minutes and then the formulations rinsed out of the hair for 45 seconds. Once rinsed, the tresses were blown dry using a blow dryer and round brush, and then flat-ironed using a ceramic iron at 400° F. for 5 passes. […]
The panelists were asked to rank the tresses from 1 (least frizz) to 6 (most frizz). The mode and average of the panelists' rankings were calculated for each to give the overall ranking.

Substance: Isostearic Acid—DETA Tertiary Amine [Example 3a]
- frizz control, conclusion in words: resisted frizz the best; also recorded: aids in frizz control
